Data as given in ChEMBL document CHEMBL4706552, “Discovery of 4-methyl-N-(4-((4-methylpiperazin- 1-yl)methyl)-3-(trifluoromethyl)phenyl)-3-((6-(pyridin-3-yl)-1H-pyrazolo[3,4-d]pyrimidin-4-yl)-oxy)benzamide as a potent inhibitor of RET and its gatekeeper mutant” (Eur J Med Chem, 2020).

Legend:
[1] = biological target: Proto-oncogene tyrosine-protein kinase receptor Ret (Homo sapiens, UniProt P07949, V804M); assay: Inhibition of recombinant human N-terminal GST-HIS6 fused RET V804M mutant C-terminal domain (H658 to S1114 residues) expressed in Sf9 insect cells using TRK-C-derived peptide as substrate in presence of [33P]-ATP by filter binding assay
[2] = Tmax in Sprague-Dawley rat at 1 mg/kg, iv; type: ADME, organism-based; conditions: in vivo
[3] = AUC (0 to t) in Sprague-Dawley rat at 1 mg/kg, iv; type: ADME, organism-based; set-up: dose 1 mg/kg; conditions: in vivo

Chain of Proto-oncogene tyrosine-protein kinase receptor Ret (P07949 29-1114 V804M limits assumed): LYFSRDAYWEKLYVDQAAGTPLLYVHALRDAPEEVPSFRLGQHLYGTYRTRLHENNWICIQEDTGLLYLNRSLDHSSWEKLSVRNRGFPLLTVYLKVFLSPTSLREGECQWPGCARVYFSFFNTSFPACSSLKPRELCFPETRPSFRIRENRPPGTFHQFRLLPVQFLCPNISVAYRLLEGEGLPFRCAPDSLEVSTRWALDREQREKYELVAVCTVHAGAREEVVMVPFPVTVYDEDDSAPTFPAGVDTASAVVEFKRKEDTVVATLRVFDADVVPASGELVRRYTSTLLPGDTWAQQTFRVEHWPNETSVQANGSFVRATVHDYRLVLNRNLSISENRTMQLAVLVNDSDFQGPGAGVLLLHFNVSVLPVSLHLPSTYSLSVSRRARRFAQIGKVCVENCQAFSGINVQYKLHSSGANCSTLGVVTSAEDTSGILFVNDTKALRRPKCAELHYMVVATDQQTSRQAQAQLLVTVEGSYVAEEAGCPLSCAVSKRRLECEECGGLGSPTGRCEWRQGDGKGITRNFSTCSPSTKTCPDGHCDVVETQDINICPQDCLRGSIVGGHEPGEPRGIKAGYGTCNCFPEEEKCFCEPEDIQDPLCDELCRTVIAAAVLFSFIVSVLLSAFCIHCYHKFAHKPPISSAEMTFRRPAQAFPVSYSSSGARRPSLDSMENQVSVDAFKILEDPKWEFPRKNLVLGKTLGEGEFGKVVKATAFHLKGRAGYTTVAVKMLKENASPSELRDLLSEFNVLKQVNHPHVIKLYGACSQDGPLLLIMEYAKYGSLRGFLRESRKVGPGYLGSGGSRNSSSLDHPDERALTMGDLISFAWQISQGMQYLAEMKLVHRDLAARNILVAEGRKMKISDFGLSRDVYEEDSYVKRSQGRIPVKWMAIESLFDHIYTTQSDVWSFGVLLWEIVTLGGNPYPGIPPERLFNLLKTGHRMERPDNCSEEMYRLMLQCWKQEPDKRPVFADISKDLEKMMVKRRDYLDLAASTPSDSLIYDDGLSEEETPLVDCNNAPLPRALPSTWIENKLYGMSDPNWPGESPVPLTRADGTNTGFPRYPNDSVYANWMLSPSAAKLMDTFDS

Question: Which results are given for `Cc1ccc(C(=O)Nc2ccc(CN3CCN(C)CC3)c(C(F)(F)F)c2)cc1Oc1nc(-c2cccnc2)nc2[nH]ncc12`?
Answer: IC50 [1]: 7.86 nM; Tmax [2]: 4.98 min; AUC(0-t) [3]: 6960 ng·h/mL
